Where two headings read alike, the source gives them in different places. Starred links: 1 amine or outer side, 2 acyl side, 3 side chain; linkers in the order of their positions; H or OH if unused. Non-standard residues stand in square brackets, D forms with d. Residues, ends and D or L forms follow the SMILES beside them. Groups on a side chain read outwards from the residue. *: point of attachment. C20 diacid = O=C(O)CCCCCCCCCCCCCCCCCCC(=O)*; C18 diacid = O=C(O)CCCCCCCCCCCCCCCCC(=O)*; γGlu = O=C(O)[C@H](CCC(=O)[*:2])N[*:1]; αMeF = C[C@](N)(Cc1ccccc1)C(=O)O; AEEA = NCCOCCOCC(=O)O; Aib = CC(C)(N)C(=O)O
How the values were obtained:
[1] = target: human GLP-1 receptor (hGLP-1R) (Homo sapiens, UniProt P43220); assay: cAMP production (HTRF) in CHO cells expressing hGLP-1R; type: cell-based; design: expressed in transfected cells; details: for EC50: cAMP, CHO cells, 0.1% BSA, geometric mean, read-out: hGLP-1R EC50
Sequence of human GLP-1 receptor (hGLP-1R) (P43220 24-463): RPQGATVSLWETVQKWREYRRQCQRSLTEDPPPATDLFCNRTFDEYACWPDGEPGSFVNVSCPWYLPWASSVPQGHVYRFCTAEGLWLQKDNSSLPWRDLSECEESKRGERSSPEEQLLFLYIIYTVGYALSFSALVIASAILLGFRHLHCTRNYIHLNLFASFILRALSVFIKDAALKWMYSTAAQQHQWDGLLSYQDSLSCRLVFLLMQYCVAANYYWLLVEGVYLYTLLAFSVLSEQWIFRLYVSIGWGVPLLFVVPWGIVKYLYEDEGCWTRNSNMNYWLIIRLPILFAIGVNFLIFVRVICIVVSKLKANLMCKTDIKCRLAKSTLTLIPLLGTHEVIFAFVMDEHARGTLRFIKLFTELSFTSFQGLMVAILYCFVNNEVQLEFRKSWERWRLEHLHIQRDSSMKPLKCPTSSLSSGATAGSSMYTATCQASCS
Method in brief: (§1)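 Potency values represent EC50 from 4-parameter logistic curves of HTRF % Delta F signal. Receptor-expressing CHO cells (hGCGR 2×10^5 cells/mL, hGLP-1R 1×10^5 cells/mL) were exposed for 30 min at room temperature before two-step cAMP detection.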

[2] = target: human glucagon receptor (hGCGR) (Homo sapiens, UniProt P47871); assay: cAMP production (HTRF) in CHO cells expressing hGCGR; type: cell-based; design: expressed in transfected cells; details: cAMP, CHO cells, 0.1% BSA, geometric mean
Sequence of human glucagon receptor (hGCGR) (P47871 26-477): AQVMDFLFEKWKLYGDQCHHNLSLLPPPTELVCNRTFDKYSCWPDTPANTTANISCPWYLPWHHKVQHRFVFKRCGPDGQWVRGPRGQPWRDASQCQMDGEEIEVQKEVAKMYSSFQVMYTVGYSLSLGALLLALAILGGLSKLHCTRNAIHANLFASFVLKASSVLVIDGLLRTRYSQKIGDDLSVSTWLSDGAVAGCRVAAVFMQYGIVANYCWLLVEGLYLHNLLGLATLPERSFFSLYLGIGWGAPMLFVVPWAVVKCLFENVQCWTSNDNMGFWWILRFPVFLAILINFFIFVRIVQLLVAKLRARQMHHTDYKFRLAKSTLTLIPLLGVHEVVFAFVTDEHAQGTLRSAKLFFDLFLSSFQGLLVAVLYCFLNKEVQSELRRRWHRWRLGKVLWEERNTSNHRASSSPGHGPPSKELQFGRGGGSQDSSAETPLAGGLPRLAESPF
Method in brief: as §1

[3] = % GLP-1R activity relative to GLP-1 / % GlucR activity relative to glucagon

Compound | % Relative Potency Ratio [1, 3] | EC50 [1] | EC50 ([2]; read-out: hGluc-R EC50) | % Relative Potency Ratio [1] | EC50 ([2]; hGluc-R EC50 (pM))
CC[C@H](C)[C@H](NC(=O)[C@H](Cc1c[nH]c2ccccc12)NC(=O)[C@H](CCCCNC(=O)COCCOCCNC(=O)COCCOCCNC(=O)CC[C@H](NC(=O)CC[C@H](NC(=O)CCCCCCCCCCCCCCCCC(=O)O)C(=O)O)C(=O)O)NC(=O)[C@@H](NC(=O)[C@H](Cc1ccccc1)NC(=O)[C@H](CC(=O)O)NC(=O)[C@H](CCC(N)=O)NC(=O)[C@H](C)NC(=O)[C@H](C)NC(=O)[C@H](CCCNC(=N)N)NC(=O)[C@H](CO)NC(=O)[C@H](CC(=O)O)NC(=O)[C@H](CC(C)C)NC(=O)[C@](C)(Cc1ccccc1)NC(=O)[C@H](CCCCN)NC(=O)[C@H](CO)NC(=O)[C@@H](NC(=O)[C@H](CC(=O)O)NC(=O)[C@H](CO)NC(=O)[C@@H](NC(=O)[C@](C)(Cc1ccccc1)NC(=O)[C@H](CO)NC(=O)CNC(=O)[C@H](Cc1c[nH]cn1)NC(=O)C(C)(C)NC(=O)[C@@H](N)Cc1c[nH]cn1)[C@@H](C)O)C(C)C)C(C)C)C(=O)N[C@@H](C)C(=O)N[C@@H](CC(N)=O)C(=O)N[C@H](C(=O)NCC(N)=O)[C@@H](C)O [Peptide 363] (H-H[Aib]HGS[αMeF]TSDVSK[αMeF]LDSRAAQDFVK([AEEA-AEEA-γGlu-γGlu-C18 diacid])WIANTG-NH2; N-terminus assumed) | 5.1 | 18.3 pM | 47.5 pM | – | –
CC[C@H](C)[C@H](NC(=O)[C@H](Cc1c[nH]c2ccccc12)NC(=O)[C@H](CCCCNC(=O)COCCOCCNC(=O)COCCOCCNC(=O)CC[C@H](NC(=O)CCCCCCCCCCCCCCCCC(=O)O)C(=O)O)NC(=O)[C@@H](NC(=O)[C@H](Cc1ccccc1)NC(=O)[C@H](CC(=O)O)NC(=O)[C@H](CCC(N)=O)NC(=O)[C@H](C)NC(=O)C(C)(C)NC(=O)[C@H](CCCNC(=N)N)NC(=O)[C@H](CO)NC(=O)[C@H](CC(=O)O)NC(=O)[C@H](CC(C)C)NC(=O)[C@](C)(Cc1ccccc1)NC(=O)[C@H](CCCCN)NC(=O)[C@H](CO)NC(=O)[C@@H](NC(=O)[C@H](CC(=O)O)NC(=O)[C@H](CO)NC(=O)[C@@H](NC(=O)[C@](C)(Cc1ccccc1)NC(=O)[C@H](CO)NC(=O)CNC(=O)[C@H](Cc1c[nH]cn1)NC(=O)C(C)(C)NC(=O)[C@@H](N)Cc1c[nH]cn1)[C@@H](C)O)C(C)C)C(C)C)C(=O)N[C@@H](C)C(=O)N[C@@H](CC(N)=O)C(=O)N[C@H](C(N)=O)[C@@H](C)O [Peptide 365, H(Aib)HGS(αMePhe)TSDVSK(αMePhe)LDSR(Aib)AQDFVK(O2Oc-O2Oc-γE-C18diacid)24WIANT-amide] (H-H[Aib]HGS[αMeF]TSDVSK[αMeF]LDSR[Aib]AQDFVK([AEEA-AEEA-γGlu-C18 diacid])WIANT-NH2; N-terminus assumed) | – | 51.3 pM | – | 0.3 | 8.77 pM
CC[C@H](C)[C@H](NC(=O)[C@H](Cc1c[nH]c2ccccc12)NC(=O)[C@H](CCCCNC(=O)COCCOCCNC(=O)COCCOCCNC(=O)CC[C@H](NC(=O)CCCCCCCCCCCCCCCCCCC(=O)O)C(=O)O)NC(=O)[C@@H](NC(=O)[C@H](Cc1ccccc1)NC(=O)[C@H](CC(=O)O)NC(=O)[C@H](CCC(N)=O)NC(=O)[C@H](C)NC(=O)C(C)(C)NC(=O)[C@H](CCCNC(=N)N)NC(=O)[C@H](CO)NC(=O)[C@H](CC(=O)O)NC(=O)[C@H](CC(C)C)NC(=O)[C@](C)(Cc1ccccc1)NC(=O)[C@H](CCCCN)NC(=O)[C@H](CO)NC(=O)[C@@H](NC(=O)[C@H](CC(=O)O)NC(=O)[C@H](CO)NC(=O)[C@@H](NC(=O)[C@](C)(Cc1ccccc1)NC(=O)[C@H](CO)NC(=O)CNC(=O)[C@H](Cc1c[nH]cn1)NC(=O)C(C)(C)NC(=O)[C@@H](N)Cc1c[nH]cn1)[C@@H](C)O)C(C)C)C(C)C)C(=O)N[C@@H](C)C(=O)N[C@@H](CC(N)=O)C(=O)N[C@H](C(N)=O)[C@@H](C)O [Peptide 368, H(Aib)HGS(αMePhe)TSDVSK(αMePhe)LDSR(Aib)AQDFVK(O2OC-O2OC-γE-C20diacid)24WIANT-amide] (H-H[Aib]HGS[αMeF]TSDVSK[αMeF]LDSR[Aib]AQDFVK([AEEA-AEEA-γGlu-C20 diacid])WIANT-NH2) | 3.1 | 186 pM | 290 pM | – | –
CC[C@H](C)[C@H](NC(=O)C(C)(C)NC(=O)[C@H](CCCCNC(=O)COCCOCCNC(=O)COCCOCCNC(=O)CC[C@H](NC(=O)CCCCCCCCCCCCCCCCCCC(=O)O)C(=O)O)NC(=O)[C@@H](NC(=O)[C@H](Cc1ccccc1)NC(=O)[C@H](CC(=O)O)NC(=O)[C@H](CCC(N)=O)NC(=O)[C@H](C)NC(=O)[C@H](C)NC(=O)[C@H](CCCNC(=N)N)NC(=O)[C@H](CO)NC(=O)[C@H](CC(=O)O)NC(=O)[C@H](CC(C)C)NC(=O)[C@](C)(Cc1ccccc1)NC(=O)[C@H](CCCCN)NC(=O)[C@H](CO)NC(=O)[C@@H](NC(=O)[C@H](CC(=O)O)NC(=O)[C@H](CO)NC(=O)[C@@H](NC(=O)[C@](C)(Cc1ccccc1)NC(=O)[C@H](CO)NC(=O)CNC(=O)[C@H](Cc1c[nH]cn1)NC(=O)C(C)(C)NC(=O)[C@@H](N)Cc1c[nH]cn1)[C@@H](C)O)C(C)C)C(C)C)C(=O)N[C@@H](C)C(=O)N[C@@H](CC(N)=O)C(=O)N[C@H](C(N)=O)[C@@H](C)O [Peptide 369] (H-H[Aib]HGS[αMeF]TSDVSK[αMeF]LDSRAAQDFVK([AEEA-AEEA-γGlu-C20 diacid])[Aib]IANT-NH2; N-terminus assumed) | 3.8 | 104 pM | 202 pM | – | –
CC[C@H](C)[C@H](NC(=O)[C@H](Cc1c[nH]c2ccccc12)NC(=O)[C@H](CCCCNC(=O)COCCOCCNC(=O)COCCOCCNC(=O)CC[C@H](NC(=O)CCCCCCCCCCCCCCCCC(=O)O)C(=O)O)NC(=O)[C@@H](NC(=O)[C@](C)(Cc1ccccc1)NC(=O)[C@H](CC(=O)O)NC(=O)[C@H](CCC(N)=O)NC(=O)[C@H](C)NC(=O)[C@H](C)NC(=O)[C@H](CCC(N)=O)NC(=O)[C@H](CO)NC(=O)[C@H](CC(=O)O)NC(=O)[C@H](CC(C)C)NC(=O)[C@](C)(Cc1ccccc1)NC(=O)[C@H](CCCCN)NC(=O)[C@H](CO)NC(=O)[C@@H](NC(=O)[C@H](CC(=O)O)NC(=O)[C@H](CO)NC(=O)[C@@H](NC(=O)[C@](C)(Cc1ccccc1)NC(=O)[C@H](CO)NC(=O)CNC(=O)[C@H](Cc1c[nH]cn1)NC(=O)C(C)(C)NC(=O)[C@@H](N)Cc1c[nH]cn1)[C@@H](C)O)C(C)C)C(C)C)C(=O)N[C@@H](C)C(=O)N[C@@H](CC(N)=O)C(=O)N[C@H](C(N)=O)[C@@H](C)O [Peptide 370] (H-H[Aib]HGS[αMeF]TSDVSK[αMeF]LDSQAAQD[αMeF]VK([AEEA-AEEA-γGlu-C18 diacid])WIANT-NH2; N-terminus assumed) | 1.1 | 323 pM | 182 pM | – | –
CC[C@H](C)[C@H](NC(=O)[C@H](Cc1c[nH]c2ccccc12)NC(=O)[C@H](CCCCNC(=O)COCCOCCNC(=O)COCCOCCNC(=O)CC[C@H](NC(=O)CC[C@H](NC(=O)CCCCCCCCCCCCCCCCC(=O)O)C(=O)O)C(=O)O)NC(=O)[C@@H](NC(=O)[C@](C)(Cc1ccccc1)NC(=O)[C@H](CC(=O)O)NC(=O)[C@H](CCC(N)=O)NC(=O)[C@H](C)NC(=O)[C@H](C)NC(=O)[C@H](CCCNC(=N)N)NC(=O)[C@H](CO)NC(=O)[C@H](CC(=O)O)NC(=O)[C@H](CC(C)C)NC(=O)[C@](C)(Cc1ccccc1)NC(=O)[C@H](CCCCN)NC(=O)[C@H](CO)NC(=O)[C@@H](NC(=O)[C@H](CC(=O)O)NC(=O)[C@H](CO)NC(=O)[C@@H](NC(=O)[C@](C)(Cc1ccccc1)NC(=O)[C@H](CO)NC(=O)CNC(=O)[C@H](Cc1c[nH]cn1)NC(=O)C(C)(C)NC(=O)[C@@H](N)Cc1c[nH]cn1)[C@@H](C)O)C(C)C)C(C)C)C(=O)N[C@@H](C)C(=O)N[C@@H](CC(N)=O)C(=O)N[C@H](C(N)=O)[C@@H](C)O [Peptide 371] (H-H[Aib]HGS[αMeF]TSDVSK[αMeF]LDSRAAQD[αMeF]VK([AEEA-AEEA-γGlu-γGlu-C18 diacid])WIANT-NH2; N-terminus assumed) | 0.9 | 191 pM | 87.2 pM | – | –
CC[C@H](C)[C@H](NC(=O)C(C)(C)NC(=O)[C@H](CCCCNC(=O)COCCOCCNC(=O)COCCOCCNC(=O)CC[C@H](NC(=O)CC[C@H](NC(=O)CCCCCCCCCCCCCCCCC(=O)O)C(=O)O)C(=O)O)NC(=O)[C@@H](NC(=O)[C@](C)(Cc1ccccc1)NC(=O)[C@H](CC(=O)O)NC(=O)[C@H](CCC(N)=O)NC(=O)[C@H](C)NC(=O)[C@H](C)NC(=O)[C@H](CCCNC(=N)N)NC(=O)[C@H](CO)NC(=O)[C@H](CC(=O)O)NC(=O)[C@H](CC(C)C)NC(=O)[C@](C)(Cc1ccccc1)NC(=O)[C@H](CCCCN)NC(=O)[C@H](CO)NC(=O)[C@@H](NC(=O)[C@H](CC(=O)O)NC(=O)[C@H](CO)NC(=O)[C@@H](NC(=O)[C@](C)(Cc1ccccc1)NC(=O)[C@H](CO)NC(=O)CNC(=O)[C@H](Cc1c[nH]cn1)NC(=O)C(C)(C)NC(=O)[C@@H](N)Cc1c[nH]cn1)[C@@H](C)O)C(C)C)C(C)C)C(=O)N[C@@H](C)C(=O)N[C@@H](CC(N)=O)C(=O)N[C@H](C(=O)NCC(=O)NCC(N)=O)[C@@H](C)O [Peptide 373] (H-H[Aib]HGS[αMeF]TSDVSK[αMeF]LDSRAAQD[αMeF]VK([AEEA-AEEA-γGlu-γGlu-C18 diacid])[Aib]IANTGG-NH2; N-terminus assumed) | 7.2 | 66.7 pM | 242 pM | – | –

— patent US20250353891A1 (MEDIMMUNE LIMITED, priority 2022, published 2025)
